Values quoted from earlier work as cited in patent US9642862B2, “Methods for treating chronic or unresolvable pain and/or increasing the pain threshold in a subject and pharmaceutical compositions for use therein” (White Mountain Pharma, Inc., priority 2010, dated 2017).

Legend:
rats = conditions: formalin test, treatment with testosterone
chronic pain subjects = conditions: four subjects, adjunctive to primary opioid therapy, anecdotal
[1] = tested on: female-to-male transsexuals; conditions: doses at or above the male reference range
[2] = tested on: ovariectomized female rats

Molecule | pain responses (rats) | quality of life (chronic pain subjects) | side effects [1] | spinal cord enkephalin transcription [2]
C[C@]12CC[C@H]3[C@@H](CCC4=CC(=O)CC[C@@]43C)[C@@H]1CC[C@@H]2O [testosterone] | decreased | improved | develop hirsutism and male-like increased risk for cardiovascular disease and diabetes | 
estrogen |  |  |  | increase
